{"source": "patent US5486516A", "about": "“Furopyrimidine derivatives” (DowElanco, priority 1993, dated 1996)", "data": [{"tested_on": "Pseudoperonospora cubensis (downy mildew)", "test": "Plant pathology screen (Test 1), downy mildew on squash", "settings": "foliar, read-out: DOWN MDEW control rating", "units": {"pest or weed control at 400 µg/mL": "%"}, "values": [{"smiles": "Cc1coc2ncnc(NCCSCc3c(F)cccc3Cl)c12", "note": "[Example 16, 5-methyl-N-[2-[[ (2-chloro-6-fluorophenyl)methyl]thio]ethyl]furo[2,3-d]pyrimidin-4-amine]", "pest or weed control at 400 µg/mL": "0 to 19"}, {"smiles": "Cc1cc2c(OCCc3ccc(OCc4ccccc4)cc3)ncnc2o1", "note": "[Example 39, 6-methyl-4-[2-[4-(phenylmethoxy)phenyl]ethoxy]furo[2,3-d]pyrimidine]", "pest or weed control at 400 µg/mL": "0 to 19"}, {"smiles": "Cc1oc2ncnc(Oc3ccccc3F)c2c1C", "note": "[Example 66, 4-(2-fluorophenoxy)-5,6-dimethylfuro[2,3-d]pyrimidine]", "pest or weed control at 400 µg/mL": "90 to 100"}]}, {"tested_on": "melon aphids (Aphis gossvpii Glover)", "test": "Mite/insect screen, melon aphids", "type": "in vivo", "settings": "Aphis; rate 200 ppm, sprayed leaves; read-out: MA results (percent mortality)", "method_in_brief": "(§1)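 Percent mortality of melon aphids was assessed after standard exposure periods. Infested squash cotyledons had been sprayed on both leaf surfaces until runoff at 10 psi with water-diluted test solutions. Compounds were formulated in acetone/alcohol (50:50) containing emulsifiers.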", "units": {"mortality at 200 ppm": "%"}, "values": [{"smiles": "Cc1coc2ncnc(NCCSCc3c(F)cccc3Cl)c12", "note": "[Example 16, 5-methyl-N-[2-[[ (2-chloro-6-fluorophenyl)methyl]thio]ethyl]furo[2,3-d]pyrimidin-4-amine]", "mortality at 200 ppm": 0}, {"smiles": "Cc1cc2c(OCCc3ccc(OCc4ccccc4)cc3)ncnc2o1", "note": "[Example 39, 6-methyl-4-[2-[4-(phenylmethoxy)phenyl]ethoxy]furo[2,3-d]pyrimidine]", "mortality at 200 ppm": 0}, {"smiles": "Cc1oc2ncnc(Oc3ccccc3F)c2c1C", "note": "[Example 66, 4-(2-fluorophenoxy)-5,6-dimethylfuro[2,3-d]pyrimidine]", "mortality at 200 ppm": 0}]}, {"tested_on": "melon aphids (Aphis gossvpii Glover)", "test": "Mite/insect screen, melon aphids", "type": "in vivo", "settings": "Aphis; rate 400 ppm, sprayed leaves; read-out: MA results (percent mortality)", "method_in_brief": "as §1", "units": {"mortality at 400 ppm": "%"}, "values": [{"smiles": "Cc1coc2ncnc(NCCSCc3c(F)cccc3Cl)c12", "note": "[Example 16, 5-methyl-N-[2-[[ (2-chloro-6-fluorophenyl)methyl]thio]ethyl]furo[2,3-d]pyrimidin-4-amine]", "mortality at 400 ppm": 0}, {"smiles": "Cc1cc2c(OCCc3ccc(OCc4ccccc4)cc3)ncnc2o1", "note": "[Example 39, 6-methyl-4-[2-[4-(phenylmethoxy)phenyl]ethoxy]furo[2,3-d]pyrimidine]", "mortality at 400 ppm": 10}, {"smiles": "Cc1oc2ncnc(Oc3ccccc3F)c2c1C", "note": "[Example 66, 4-(2-fluorophenoxy)-5,6-dimethylfuro[2,3-d]pyrimidine]", "mortality at 400 ppm": 0}]}, {"tested_on": "Twospotted spider mites (Tetranychus urticae Koch)", "test": "Mite/insect screen, twospotted spider mites", "type": "in vivo", "settings": "Tetranychus urticae, rate 200 ppm, sprayed leaves; read-out: SM results (percent mortality)", "method_in_brief": "(§2)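 Percent mortality, along with phytotoxicity, was read after standard exposure periods. Beforehand, mites established on both surfaces of squash cotyledons received a runoff spray (10 psi) of water-diluted compound formulated in acetone/alcohol with sulfonate/nonionic emulsifiers.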", "units": {"mortality at 200 ppm": "%"}, "values": [{"smiles": "Cc1coc2ncnc(NCCSCc3c(F)cccc3Cl)c12", "note": "[Example 16, 5-methyl-N-[2-[[ (2-chloro-6-fluorophenyl)methyl]thio]ethyl]furo[2,3-d]pyrimidin-4-amine]", "mortality at 200 ppm": 0}, {"smiles": "Cc1cc2c(OCCc3ccc(OCc4ccccc4)cc3)ncnc2o1", "note": "[Example 39, 6-methyl-4-[2-[4-(phenylmethoxy)phenyl]ethoxy]furo[2,3-d]pyrimidine]", "mortality at 200 ppm": 0}, {"smiles": "Cc1oc2ncnc(Oc3ccccc3F)c2c1C", "note": "[Example 66, 4-(2-fluorophenoxy)-5,6-dimethylfuro[2,3-d]pyrimidine]", "mortality at 200 ppm": 0}]}, {"tested_on": "Twospotted spider mites (Tetranychus urticae Koch)", "test": "Mite/insect screen, twospotted spider mites", "type": "in vivo", "settings": "Tetranychus urticae, rate 400 ppm, sprayed leaves; read-out: SM results (percent mortality)", "method_in_brief": "as §2", "units": {"mortality at 400 ppm": "%"}, "values": [{"smiles": "Cc1coc2ncnc(NCCSCc3c(F)cccc3Cl)c12", "note": "[Example 16, 5-methyl-N-[2-[[ (2-chloro-6-fluorophenyl)methyl]thio]ethyl]furo[2,3-d]pyrimidin-4-amine]", "mortality at 400 ppm": 0}, {"smiles": "Cc1cc2c(OCCc3ccc(OCc4ccccc4)cc3)ncnc2o1", "note": "[Example 39, 6-methyl-4-[2-[4-(phenylmethoxy)phenyl]ethoxy]furo[2,3-d]pyrimidine]", "mortality at 400 ppm": 0}, {"smiles": "Cc1oc2ncnc(Oc3ccccc3F)c2c1C", "note": "[Example 66, 4-(2-fluorophenoxy)-5,6-dimethylfuro[2,3-d]pyrimidine]", "mortality at 400 ppm": 0}]}, {"tested_on": "Southern corn rootworm (Diabrotica undecimpuctata howardi Barber)", "test": "Mite/insect screen, corn rootworm", "type": "in vivo", "settings": "Diabrotica; CRW rate 12.00 ppm, soil; read-out: CRW results (percent mortality)", "method_in_brief": "(§3)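 Five 2-3 instar larvae per cup were placed on sandy soil (15 g, with presoaked corn seed) treated 6–12 h earlier with 1 mL test solution, an emulsified acetone/alcohol formulation diluted in water. Cups kept at 23° C; mortality and phytotoxicity assessed as percent after standard exposures.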", "units": {"mortality at 12 ppm": "%"}, "values": [{"smiles": "Cc1coc2ncnc(NCCSCc3c(F)cccc3Cl)c12", "note": "[Example 16, 5-methyl-N-[2-[[ (2-chloro-6-fluorophenyl)methyl]thio]ethyl]furo[2,3-d]pyrimidin-4-amine]", "mortality at 12 ppm": 0}, {"smiles": "Cc1cc2c(OCCc3ccc(OCc4ccccc4)cc3)ncnc2o1", "note": "[Example 39, 6-methyl-4-[2-[4-(phenylmethoxy)phenyl]ethoxy]furo[2,3-d]pyrimidine]", "mortality at 12 ppm": 0}, {"smiles": "Cc1oc2ncnc(Oc3ccccc3F)c2c1C", "note": "[Example 66, 4-(2-fluorophenoxy)-5,6-dimethylfuro[2,3-d]pyrimidine]", "mortality at 12 ppm": 0}]}, {"tested_on": "Southern corn rootworm (Diabrotica undecimpuctata howardi Barber)", "test": "Mite/insect screen, corn rootworm", "type": "in vivo", "settings": "Diabrotica; CRW rate 24.00 ppm, soil; read-out: CRW results (percent mortality)", "method_in_brief": "as §3", "units": {"mortality at 24 ppm": "%"}, "values": [{"smiles": "Cc1coc2ncnc(NCCSCc3c(F)cccc3Cl)c12", "note": "[Example 16, 5-methyl-N-[2-[[ (2-chloro-6-fluorophenyl)methyl]thio]ethyl]furo[2,3-d]pyrimidin-4-amine]", "mortality at 24 ppm": 0}, {"smiles": "Cc1cc2c(OCCc3ccc(OCc4ccccc4)cc3)ncnc2o1", "note": "[Example 39, 6-methyl-4-[2-[4-(phenylmethoxy)phenyl]ethoxy]furo[2,3-d]pyrimidine]", "mortality at 24 ppm": 0}, {"smiles": "Cc1oc2ncnc(Oc3ccccc3F)c2c1C", "note": "[Example 66, 4-(2-fluorophenoxy)-5,6-dimethylfuro[2,3-d]pyrimidine]", "mortality at 24 ppm": 0}]}, {"tested_on": "southern armyworm (Spodopetra eridania Cramer)", "test": "Mite/insect screen, Southern armyworm", "type": "in vivo", "settings": "Spodoptera eridania; rate 200 ppm, sprayed leaves; read-out: SAW results (percent mortality)", "method_in_brief": "(§4)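 Southern armyworm larvae placed in Petri dishes with two excised squash leaves that had been sprayed to runoff (10 psi) with emulsified compound and air-dried for 1 h. Mortality in percent recorded after a standard exposure period; formulation acetone/alcohol plus Toximul R and S, water-diluted.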", "units": {"mortality at 200 ppm": "%"}, "values": [{"smiles": "Cc1coc2ncnc(NCCSCc3c(F)cccc3Cl)c12", "note": "[Example 16, 5-methyl-N-[2-[[ (2-chloro-6-fluorophenyl)methyl]thio]ethyl]furo[2,3-d]pyrimidin-4-amine]", "mortality at 200 ppm": 0}, {"smiles": "Cc1cc2c(OCCc3ccc(OCc4ccccc4)cc3)ncnc2o1", "note": "[Example 39, 6-methyl-4-[2-[4-(phenylmethoxy)phenyl]ethoxy]furo[2,3-d]pyrimidine]", "mortality at 200 ppm": 0}, {"smiles": "Cc1oc2ncnc(Oc3ccccc3F)c2c1C", "note": "[Example 66, 4-(2-fluorophenoxy)-5,6-dimethylfuro[2,3-d]pyrimidine]", "mortality at 200 ppm": 0}]}, {"tested_on": "southern armyworm (Spodopetra eridania Cramer)", "test": "Mite/insect screen, Southern armyworm", "type": "in vivo", "settings": "Spodoptera eridania; rate 400 ppm, sprayed leaves; read-out: SAW results (percent mortality)", "method_in_brief": "as §4", "units": {"mortality at 400 ppm": "%"}, "values": [{"smiles": "Cc1coc2ncnc(NCCSCc3c(F)cccc3Cl)c12", "note": "[Example 16, 5-methyl-N-[2-[[ (2-chloro-6-fluorophenyl)methyl]thio]ethyl]furo[2,3-d]pyrimidin-4-amine]", "mortality at 400 ppm": 0}, {"smiles": "Cc1cc2c(OCCc3ccc(OCc4ccccc4)cc3)ncnc2o1", "note": "[Example 39, 6-methyl-4-[2-[4-(phenylmethoxy)phenyl]ethoxy]furo[2,3-d]pyrimidine]", "mortality at 400 ppm": 0}, {"smiles": "Cc1oc2ncnc(Oc3ccccc3F)c2c1C", "note": "[Example 66, 4-(2-fluorophenoxy)-5,6-dimethylfuro[2,3-d]pyrimidine]", "mortality at 400 ppm": 0}]}, {"tested_on": "Erysiphe graminis tritici (powdery mildew)", "test": "Plant pathology screen (Test 1), powdery mildew on wheat", "settings": "Blumeria graminis, in Triticum aestivum, foliar, read-out: POWD MDEW control rating", "units": {"pest or weed control at 400 µg/mL": "%"}, "procedure": "The test compounds were formulated for application by dissolving 50 mg of the compound into 1.25 ml of solvent. The solvent was prepared by mixing 50 ml of \"Tween 20\" (polyoxyethylene (20) sorbitan monolaurate emulsifier) with 475 ml of acetone and 475 ml of ethanol. The solvent/compound solution was diluted to 125 ml with deionized water. The resulting formulation contains 400 ppm test chemical. Lower concentrations were obtained by serial dilution with the solvent-surfactant mixture.\nThe formulated test compounds were applied by foliar spray.\nThe formulated technical compounds were sprayed on all foliar surfaces of the host plants (or cut berry) to past run-off. Single pots of each host plant were placed on raised, revolving pedestals in a fume hood. Test solutions were sprayed on all foliar surfaces. All treatments were allowed to dry and the plants were inoculated with the appropriate pathogens within 2-4 hours.\nThe effectiveness of test compounds in controlling disease was rated using the following scale.", "values": [{"smiles": "Cc1coc2ncnc(NCCSCc3c(F)cccc3Cl)c12", "note": "[Example 16, 5-methyl-N-[2-[[ (2-chloro-6-fluorophenyl)methyl]thio]ethyl]furo[2,3-d]pyrimidin-4-amine]", "pest or weed control at 400 µg/mL": "0 to 19"}, {"smiles": "Cc1cc2c(OCCc3ccc(OCc4ccccc4)cc3)ncnc2o1", "note": "[Example 39, 6-methyl-4-[2-[4-(phenylmethoxy)phenyl]ethoxy]furo[2,3-d]pyrimidine]", "pest or weed control at 400 µg/mL": "0 to 19"}, {"smiles": "Cc1oc2ncnc(Oc3ccccc3F)c2c1C", "note": "[Example 66, 4-(2-fluorophenoxy)-5,6-dimethylfuro[2,3-d]pyrimidine]", "pest or weed control at 400 µg/mL": "90 to 100"}]}, {"tested_on": "Botrytis cinerea (gray mold)", "test": "Plant pathology screen (Test 1), gray mold on grape berries", "settings": "read-out: GRAY MOLD control rating", "units": {"pest or weed control at 400 µg/mL": "%"}, "values": [{"smiles": "Cc1coc2ncnc(NCCSCc3c(F)cccc3Cl)c12", "note": "[Example 16, 5-methyl-N-[2-[[ (2-chloro-6-fluorophenyl)methyl]thio]ethyl]furo[2,3-d]pyrimidin-4-amine]", "pest or weed control at 400 µg/mL": "0 to 19"}, {"smiles": "Cc1cc2c(OCCc3ccc(OCc4ccccc4)cc3)ncnc2o1", "note": "[Example 39, 6-methyl-4-[2-[4-(phenylmethoxy)phenyl]ethoxy]furo[2,3-d]pyrimidine]", "pest or weed control at 400 µg/mL": "0 to 19"}, {"smiles": "Cc1oc2ncnc(Oc3ccccc3F)c2c1C", "note": "[Example 66, 4-(2-fluorophenoxy)-5,6-dimethylfuro[2,3-d]pyrimidine]", "pest or weed control at 400 µg/mL": "0 to 19"}]}, {"tested_on": "Pyricularia oryzae (rice blast)", "test": "whole plant or invertebrate", "type": "in vivo", "settings": "foliar, read-out: RICE BLAST control rating", "units": {"pest or weed control at 400 µg/mL": "%"}, "values": [{"smiles": "Cc1coc2ncnc(NCCSCc3c(F)cccc3Cl)c12", "note": "[Example 16, 5-methyl-N-[2-[[ (2-chloro-6-fluorophenyl)methyl]thio]ethyl]furo[2,3-d]pyrimidin-4-amine]", "pest or weed control at 400 µg/mL": "0 to 19"}, {"smiles": "Cc1cc2c(OCCc3ccc(OCc4ccccc4)cc3)ncnc2o1", "note": "[Example 39, 6-methyl-4-[2-[4-(phenylmethoxy)phenyl]ethoxy]furo[2,3-d]pyrimidine]", "pest or weed control at 400 µg/mL": "0 to 19"}, {"smiles": "Cc1oc2ncnc(Oc3ccccc3F)c2c1C", "note": "[Example 66, 4-(2-fluorophenoxy)-5,6-dimethylfuro[2,3-d]pyrimidine]", "pest or weed control at 400 µg/mL": "0 to 19"}]}, {"tested_on": "Puccinia recondita tritici (leaf rust)", "test": "Plant pathology screen (Test 1), leaf rust on wheat", "settings": "in Triticum aestivum, foliar, read-out: LEAF RUST control rating", "units": {"pest or weed control at 400 µg/mL": "%"}, "values": [{"smiles": "Cc1coc2ncnc(NCCSCc3c(F)cccc3Cl)c12", "note": "[Example 16, 5-methyl-N-[2-[[ (2-chloro-6-fluorophenyl)methyl]thio]ethyl]furo[2,3-d]pyrimidin-4-amine]", "pest or weed control at 400 µg/mL": "0 to 19"}, {"smiles": "Cc1cc2c(OCCc3ccc(OCc4ccccc4)cc3)ncnc2o1", "note": "[Example 39, 6-methyl-4-[2-[4-(phenylmethoxy)phenyl]ethoxy]furo[2,3-d]pyrimidine]", "pest or weed control at 400 µg/mL": "90 to 100"}, {"smiles": "Cc1oc2ncnc(Oc3ccccc3F)c2c1C", "note": "[Example 66, 4-(2-fluorophenoxy)-5,6-dimethylfuro[2,3-d]pyrimidine]", "pest or weed control at 400 µg/mL": "20 to 89"}]}]}
